Assays:
Format in all cases: functional, cell-based
LS180 = test: Cytotoxicity against human LS180 cells assessed as cell inhibition measured after 72 hrs by MTT assay; details: LS180, 72 h
A549 = test: Cytotoxicity against human A549 cells assessed as cell inhibition measured after 72 hrs by MTT assay; details: A549, 72 h
MDA-MB-231 = test: Cytotoxicity against human MDA-MB-231 cells assessed as cell inhibition measured after 72 hrs by MTT assay; details: MDA-MB-231, 72 h
HepG2 = test: Cytotoxicity against human HepG2 cells assessed as cell inhibition measured after 72 hrs by MTT assay; details: HepG2, 72 h
SGC-7901 = test: Cytotoxicity against human SGC-7901 cells assessed as cell inhibition measured after 72 hrs by MTT assay; details: SGC-7901, 72 h

Structure (SMILES): O=C(c1ccc(OCc2ccccc2)cc1)c1nccc2c1[nH]c1ccccc12
- IC50 (LS180): 20.7 µM
- IC50 (A549): 15.6 µM
- IC50 (MDA-MB-231): 11.2 µM
- IC50 (HepG2): 203 µM
- IC50 (SGC-7901): 55.1 µM

Structure (SMILES): O=C(c1ccc(O)cc1)c1nccc2c1[nH]c1ccccc12 [EUDISTOMIN Y1]
- IC50 (LS180): 89.8 µM
- IC50 (A549): 71.9 µM
- IC50 (MDA-MB-231): 129 µM
- IC50 (HepG2): 126 µM
- IC50 (SGC-7901): 119 µM

Structure (SMILES): Cc1cccc(Cn2c3ccccc3c3ccnc(C(=O)c4ccccc4)c32)c1
- IC50 (LS180): 19 µM
- IC50 (A549): 33.6 µM
- IC50 (MDA-MB-231): 56.5 µM
- IC50 (HepG2): 31.8 µM
- IC50 (SGC-7901): 25.4 µM

Structure (SMILES): Cc1cccc(Cn2c3ccccc3c3ccnc(C(=O)c4ccc(O)cc4)c32)c1
- IC50 (LS180): 25.5 µM
- IC50 (A549): 26.8 µM
- IC50 (MDA-MB-231): 65.6 µM
- IC50 (HepG2): 38.8 µM
- IC50 (SGC-7901): 27.5 µM

Structure (SMILES): Cn1c2ccccc2c2ccnc(C(=O)c3ccc(OCc4ccccc4)cc3)c21
- IC50 (LS180): 33.6 µM
- IC50 (A549): 34.2 µM
- IC50 (MDA-MB-231): 19.8 µM
- IC50 (HepG2): 62.4 µM
- IC50 (SGC-7901): 40.2 µM

Reference: ChEMBL document CHEMBL5385881, “Design, synthesis, and discovery of Eudistomin Y derivatives as lysosome-targeted antiproliferation agents” (Eur J Med Chem, 2023)
